Source: the supplement of paper PMC10307832

Columns and labels:
Experiment in all cases: relative viability (nuclei count vs DMSO), 5 days (fraction); higher = more cells survive
[1] = compound: CCn1c(-c2nonc2N)nc2c(C#CC(C)(C)O)ncc(OC[C@H]3CCCNC3)c21 + CC1(C)CCC(c2ccc(Cl)cc2)=C(CN2CCN(c3ccc(C(=O)NS(=O)(=O)c4ccc(N[C@H](CCN5CCOCC5)CSc5ccccc5)c(S(=O)(=O)C(F)(F)F)c4)cc3)CC2)C1 [Navitoclax] (partner 0.5 µM)
How it was run: (§1)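 Relative viability equals treated-well nuclei counts divided by vehicle-well nuclei counts. Counts came from 4× images of lung cancer cell lines grown in 1536-well plates for 5 days after pin-tool dosing on the day after seeding. Dosing used one drug alone or a fixed anchor-drug dose plus five library-drug doses (not always all listed) in √10 steps, and values are medians of duplicate plates.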

[2] = compound: CCn1c(-c2nonc2N)nc2c(C#CC(C)(C)O)ncc(OC[C@H]3CCCNC3)c21 + CC(=O)Nc1cccc(-n2c(=O)n(C3CC3)c(=O)c3c(Nc4ccc(I)cc4F)n(C)c(=O)c(C)c32)c1 [Trametinib] (partner 0.02 µM)
How it was run: as §1

BAM7 + Foretinib = compound: CCOC1=CC=CC=C1N=NC2=C(NN(C2=O)C3=NC(=CS3)C4=CC=CC=C4)C [BAM7] + COc1cc2c(Oc3ccc(NC(=O)C4(C(=O)Nc5ccc(F)cc5)CC4)cc3F)ccnc2cc1OCCCN1CCOCC1 [Foretinib] (partner 0.25 µM)
How it was run: as §1

BAM7 + Vorinostat = compound: CCOC1=CC=CC=C1N=NC2=C(NN(C2=O)C3=NC(=CS3)C4=CC=CC=C4)C [BAM7] + O=C(CCCCCCC(=O)Nc1ccccc1)NO [Vorinostat] (partner 1 µM)
How it was run: as §1

Cell Line | relative viability ([1]; first compound 0.01 µM) | relative viability ([1]; first compound 0.03162 µM) | relative viability ([1]; first compound 0.1 µM) | relative viability ([1]; first compound 0.3162 µM) | relative viability ([1]; first compound 1 µM) | relative viability ([2]; first compound 0.01 µM) | relative viability ([2]; first compound 0.03162 µM) | relative viability ([2]; first compound 0.1 µM) | relative viability ([2]; first compound 0.3162 µM) | relative viability ([2]; first compound 1 µM) | relative viability (BAM7 + Foretinib; first compound 0.5 µM) | relative viability (BAM7 + Foretinib; first compound 5 µM) | relative viability (BAM7 + Foretinib; first compound 15.81 µM) | relative viability (BAM7 + Foretinib; first compound 50 µM) | relative viability (BAM7 + Vorinostat; first compound 0.5 µM) | relative viability (BAM7 + Vorinostat; first compound 5 µM) | relative viability (BAM7 + Vorinostat; first compound 15.81 µM) | relative viability (BAM7 + Vorinostat; first compound 50 µM)
EKVX | 0.882 | 0.858 | 0.927 | 0.908 | 0.853 | 0.394 | 0.385 | 0.347 | 0.377 | 0.34 | 0.792 | 0.79 | 0.541 | 0.987 | 0.611 | 0.664 | 0.457 | 0.513
EMC-BAC-2 | 1.17 | 1.18 | 1.15 | 1.07 | 1.13 | 0.864 |  | 1.08 | 0.848 | 0.913 | 0.974 | 1.04 | 0.985 | 1.05 | 0.478 | 0.485 | 0.658 | 0.483
EPLC-272H | 1.24 | 1.21 | 0.932 | 1.16 | 0.906 | 0.324 | 0.284 | 0.252 | 0.217 | 0.315 | 0.653 |  | 0.632 | 0.811 | 0.623 | 0.427 | 0.477 | 0.358
H3255 | 0.526 | 0.571 | 0.429 | 0.407 | 0.466 | 0.608 | 0.614 | 0.576 | 0.427 | 0.532 | 0.774 | 0.868 | 0.806 | 0.858 | 0.819 | 0.763 | 0.733 | 0.811
HARA | 1.09 | 1.2 | 1.14 | 1.16 | 1.14 | 0.542 | 0.852 | 0.947 | 0.652 | 0.611 | 0.913 | 0.833 | 0.779 | 1.02 | 0.333 | 0.767 | 0.304 | 0.439
HCC-15 | 0.72 | 0.752 | 0.721 | 0.634 | 0.653 | 0.358 | 0.352 | 0.385 | 0.39 | 0.354 | 1 | 1.04 | 0.982 | 1 | 0.703 | 0.729 | 0.605 | 0.667
HCC-44 | 0.938 | 0.956 | 0.944 | 0.851 | 0.981 | 1.03 | 0.98 | 1.09 | 1.07 | 1.05 |  |  |  |  | 1.02 | 1.11 | 1.04 | 1.07
HCC-78 | 0.661 | 0.826 | 0.678 | 0.654 | 0.71 | 0.639 | 0.709 | 0.703 | 0.69 | 0.652 | 0.566 | 0.516 | 0.564 | 0.58 | 0.382 | 0.455 | 0.436 | 0.459
HCC-366 | 0.967 | 1.1 | 1.01 | 1.06 | 1.02 | 0.391 | 0.312 | 0.364 | 0.334 | 0.293 | 0.92 | 0.849 | 0.94 | 0.836 | 0.301 | 0.28 | 0.356 | 0.344
